Measurements as given in the kinase profiling compilation of Christmann-Franck et al. (2016).
Values joined by “and” are separate entries in the source; they are usually repeats but may differ in a detail not shown here. Equal values may be shown once.

How the values were obtained:
Test in all cases: radiometric filter-binding kinase assay, Kinase HotSpot
Details in all cases: compound 0.5 µM; ATP 10 µM
PASK (human) = PASK (human) (UniProt Q96RG2)
DAPK1 (human) = DAPK1 (human) (UniProt P53355)
RPS6KA1 KD1 KD2 (human) = RPS6KA1 KD1 KD2 (human) (UniProt Q15418)
PRKACA (human) = PRKACA (human) (UniProt P17612)
CAMK4 (human) = CAMK4 (human) (UniProt Q16566)
ABL2 (human) = ABL2 (human) (UniProt P42684)
RIPK2 (human) = RIPK2 (human) (UniProt O43353)
PLK1 (human) = PLK1 (human) (UniProt P53350)
MST4 (human) = MST4 (human) (UniProt Q9P289)
LYN (human) = LYN (human) (UniProt P07948)
[1] = tested on: MKNK1 (human), Q9BUB5 [T385D; 165-205 del]
INSRR (human) = INSRR (human) (UniProt P14616)
BMX (human) = BMX (human) (UniProt P51813)
NEK11 (human) = NEK11 (human) (UniProt Q8NG66)
SRMS (human) = SRMS (human) (UniProt Q9H3Y6)
FRK (human) = FRK (human) (UniProt P42685)
CAMK2B (human) = CAMK2B (human) (UniProt Q13554)
PRKCA (human) = PRKCA (human) (UniProt P17252)
FGFR2 (human) = FGFR2 (human) (UniProt P21802)
SRPK2 (human) = SRPK2 (human) (UniProt P78362)
YES1 (human) = YES1 (human) (UniProt P07947)
PRKCB2 (human) = PRKCB2 (human) (UniProt P05771)
EPHB3 (human) = EPHB3 (human) (UniProt P54753)
PRKD2 (human) = PRKD2 (human) (UniProt Q9BZL6)
PRKG1 (human) = PRKG1 (human) (UniProt Q13976)
PAK1 (human) = PAK1 (human) (UniProt Q13153)
SGK3 (human) = SGK3 (human) (UniProt Q96BR1)
CSF1R (human) = CSF1R (human) (UniProt P07333)
AURKC (human) = AURKC (human) (UniProt Q9UQB9)
CDK9 CCNT1 (human) = CDK9 CCNT1 (human) (UniProt P50750+O60563)
EPHA7 (human) = EPHA7 (human) (UniProt Q15375)
MAP4K2 (human) = MAP4K2 (human) (UniProt Q12851)
NTRK2 (human) = NTRK2 (human) (UniProt Q16620)
PBK (human) = PBK (human) (UniProt Q96KB5)
DDR2 (human) = DDR2 (human) (UniProt Q16832)
PHKG2 (human) = PHKG2 (human) (UniProt P15735)
CDK2 CCNA2 (human) = CDK2 CCNA2 (human) (UniProt P24941+P20248)
MKNK2 (human) = MKNK2 (human) (UniProt Q9HBH9)
CSNK2A2 (human) = CSNK2A2 (human) (UniProt P19784)
MATK (human) = MATK (human) (UniProt P42679)
HIPK2 (human) = HIPK2 (human) (UniProt Q9H2X6)
ITK (human) = ITK (human) (UniProt Q08881)

Sequence of CAMK2B (human) (Q13554 whole entry, looked up): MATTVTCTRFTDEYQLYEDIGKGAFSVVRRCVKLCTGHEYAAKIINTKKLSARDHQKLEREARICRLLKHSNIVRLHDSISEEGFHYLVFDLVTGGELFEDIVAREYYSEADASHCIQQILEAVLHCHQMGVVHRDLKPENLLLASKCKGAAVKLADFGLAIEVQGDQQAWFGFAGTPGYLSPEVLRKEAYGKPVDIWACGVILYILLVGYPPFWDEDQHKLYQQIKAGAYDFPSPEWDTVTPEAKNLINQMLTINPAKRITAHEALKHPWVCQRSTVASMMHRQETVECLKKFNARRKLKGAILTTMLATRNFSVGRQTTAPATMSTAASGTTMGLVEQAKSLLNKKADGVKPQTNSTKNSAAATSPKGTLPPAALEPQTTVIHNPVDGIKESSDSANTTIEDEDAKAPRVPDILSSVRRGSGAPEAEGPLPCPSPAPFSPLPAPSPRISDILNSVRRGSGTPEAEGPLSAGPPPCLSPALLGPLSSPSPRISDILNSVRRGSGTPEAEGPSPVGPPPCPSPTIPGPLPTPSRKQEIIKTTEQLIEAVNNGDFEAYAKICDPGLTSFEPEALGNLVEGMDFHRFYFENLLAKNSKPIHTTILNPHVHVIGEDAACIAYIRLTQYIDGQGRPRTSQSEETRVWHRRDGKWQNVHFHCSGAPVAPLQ
Sequence of RPS6KA1 KD1 KD2 (human) (Q15418 whole entry, looked up): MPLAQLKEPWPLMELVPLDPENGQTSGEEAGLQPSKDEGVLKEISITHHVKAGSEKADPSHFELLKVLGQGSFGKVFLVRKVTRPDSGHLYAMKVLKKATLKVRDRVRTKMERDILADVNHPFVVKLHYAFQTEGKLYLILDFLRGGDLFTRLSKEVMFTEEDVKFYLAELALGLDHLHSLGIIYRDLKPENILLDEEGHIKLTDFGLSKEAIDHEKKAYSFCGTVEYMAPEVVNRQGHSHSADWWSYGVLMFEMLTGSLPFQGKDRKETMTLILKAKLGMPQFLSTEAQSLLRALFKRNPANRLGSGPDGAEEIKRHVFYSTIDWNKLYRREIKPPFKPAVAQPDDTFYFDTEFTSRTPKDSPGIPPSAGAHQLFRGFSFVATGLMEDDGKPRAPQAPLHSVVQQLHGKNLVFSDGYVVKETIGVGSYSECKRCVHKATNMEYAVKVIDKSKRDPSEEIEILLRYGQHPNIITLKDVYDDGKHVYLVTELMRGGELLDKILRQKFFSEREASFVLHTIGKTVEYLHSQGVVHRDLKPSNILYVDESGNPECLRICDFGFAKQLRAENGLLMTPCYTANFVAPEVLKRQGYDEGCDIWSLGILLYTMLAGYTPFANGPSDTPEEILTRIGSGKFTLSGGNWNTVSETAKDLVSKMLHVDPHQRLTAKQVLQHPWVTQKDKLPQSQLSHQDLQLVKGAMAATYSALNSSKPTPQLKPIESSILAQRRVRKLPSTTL
Sequence of PAK1 (human) (Q13153 whole entry, looked up): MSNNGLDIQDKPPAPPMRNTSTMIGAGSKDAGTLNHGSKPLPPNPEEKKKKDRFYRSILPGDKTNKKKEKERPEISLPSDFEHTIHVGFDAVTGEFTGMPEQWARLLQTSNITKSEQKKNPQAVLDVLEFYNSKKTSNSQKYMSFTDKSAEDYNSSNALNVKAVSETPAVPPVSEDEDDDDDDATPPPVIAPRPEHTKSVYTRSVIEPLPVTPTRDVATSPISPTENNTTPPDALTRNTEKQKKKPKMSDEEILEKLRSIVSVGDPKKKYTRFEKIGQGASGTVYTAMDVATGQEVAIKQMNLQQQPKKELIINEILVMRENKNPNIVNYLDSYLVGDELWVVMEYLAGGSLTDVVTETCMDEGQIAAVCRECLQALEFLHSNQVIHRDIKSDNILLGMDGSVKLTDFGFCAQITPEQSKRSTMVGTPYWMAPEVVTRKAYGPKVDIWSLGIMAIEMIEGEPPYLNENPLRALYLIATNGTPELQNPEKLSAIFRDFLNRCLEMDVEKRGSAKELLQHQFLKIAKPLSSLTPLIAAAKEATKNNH
Sequence of AURKC (human) (Q9UQB9 whole entry, looked up): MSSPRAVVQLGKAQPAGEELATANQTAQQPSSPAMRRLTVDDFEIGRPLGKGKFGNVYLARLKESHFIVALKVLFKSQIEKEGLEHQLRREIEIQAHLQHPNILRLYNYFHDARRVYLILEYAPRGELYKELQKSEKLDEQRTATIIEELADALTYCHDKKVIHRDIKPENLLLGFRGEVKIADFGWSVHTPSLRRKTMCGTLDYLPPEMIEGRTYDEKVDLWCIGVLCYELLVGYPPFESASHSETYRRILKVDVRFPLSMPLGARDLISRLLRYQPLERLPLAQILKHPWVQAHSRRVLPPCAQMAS
Sequence of LYN (human) (P07948 whole entry, looked up): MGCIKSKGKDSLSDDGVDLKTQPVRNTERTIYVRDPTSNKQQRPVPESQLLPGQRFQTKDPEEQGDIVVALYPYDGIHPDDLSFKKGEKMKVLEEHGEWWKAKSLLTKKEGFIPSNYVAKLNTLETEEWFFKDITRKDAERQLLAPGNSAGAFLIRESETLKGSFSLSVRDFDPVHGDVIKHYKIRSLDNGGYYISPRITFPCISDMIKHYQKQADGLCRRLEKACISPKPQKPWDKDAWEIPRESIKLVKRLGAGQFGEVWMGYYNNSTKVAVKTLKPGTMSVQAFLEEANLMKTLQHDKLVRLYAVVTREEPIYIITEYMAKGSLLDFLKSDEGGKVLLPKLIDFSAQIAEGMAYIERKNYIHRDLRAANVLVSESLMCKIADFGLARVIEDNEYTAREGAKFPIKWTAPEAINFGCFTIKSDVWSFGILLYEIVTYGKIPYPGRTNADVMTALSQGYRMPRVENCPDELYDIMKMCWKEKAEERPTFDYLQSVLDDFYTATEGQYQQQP
Sequence of PRKG1 (human) (Q13976 whole entry, looked up): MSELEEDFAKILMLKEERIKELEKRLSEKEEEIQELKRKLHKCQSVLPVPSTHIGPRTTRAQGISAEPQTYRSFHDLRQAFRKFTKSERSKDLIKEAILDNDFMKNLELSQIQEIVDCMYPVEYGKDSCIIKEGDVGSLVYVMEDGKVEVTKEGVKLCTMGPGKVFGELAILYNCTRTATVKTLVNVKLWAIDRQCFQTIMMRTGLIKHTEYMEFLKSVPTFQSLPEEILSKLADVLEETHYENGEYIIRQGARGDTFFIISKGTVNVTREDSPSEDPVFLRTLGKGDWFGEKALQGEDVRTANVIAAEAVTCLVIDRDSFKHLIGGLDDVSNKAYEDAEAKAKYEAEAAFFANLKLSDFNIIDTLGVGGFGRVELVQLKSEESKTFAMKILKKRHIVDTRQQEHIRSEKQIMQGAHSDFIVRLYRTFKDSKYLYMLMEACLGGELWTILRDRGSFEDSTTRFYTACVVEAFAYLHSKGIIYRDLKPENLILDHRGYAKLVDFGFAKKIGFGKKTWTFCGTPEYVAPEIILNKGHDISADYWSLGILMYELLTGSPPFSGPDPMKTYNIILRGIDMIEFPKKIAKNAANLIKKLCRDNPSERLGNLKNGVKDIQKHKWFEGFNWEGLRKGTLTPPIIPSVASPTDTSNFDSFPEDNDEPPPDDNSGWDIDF
Sequence of SRMS (human) (Q9H3Y6 whole entry, looked up): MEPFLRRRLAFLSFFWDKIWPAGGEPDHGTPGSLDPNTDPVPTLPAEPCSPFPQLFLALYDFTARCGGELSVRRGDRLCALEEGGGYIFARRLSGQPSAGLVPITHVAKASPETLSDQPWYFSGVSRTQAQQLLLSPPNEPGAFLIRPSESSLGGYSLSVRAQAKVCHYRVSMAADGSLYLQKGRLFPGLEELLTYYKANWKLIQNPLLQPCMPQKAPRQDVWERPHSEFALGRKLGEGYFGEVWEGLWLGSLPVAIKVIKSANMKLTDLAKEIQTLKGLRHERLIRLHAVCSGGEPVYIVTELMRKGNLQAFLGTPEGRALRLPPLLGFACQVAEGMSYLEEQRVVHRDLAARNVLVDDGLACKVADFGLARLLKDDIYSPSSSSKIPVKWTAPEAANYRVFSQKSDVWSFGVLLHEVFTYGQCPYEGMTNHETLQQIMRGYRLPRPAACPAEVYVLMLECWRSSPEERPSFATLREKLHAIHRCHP
Sequence of MST4 (human) (Q9P289 whole entry, looked up): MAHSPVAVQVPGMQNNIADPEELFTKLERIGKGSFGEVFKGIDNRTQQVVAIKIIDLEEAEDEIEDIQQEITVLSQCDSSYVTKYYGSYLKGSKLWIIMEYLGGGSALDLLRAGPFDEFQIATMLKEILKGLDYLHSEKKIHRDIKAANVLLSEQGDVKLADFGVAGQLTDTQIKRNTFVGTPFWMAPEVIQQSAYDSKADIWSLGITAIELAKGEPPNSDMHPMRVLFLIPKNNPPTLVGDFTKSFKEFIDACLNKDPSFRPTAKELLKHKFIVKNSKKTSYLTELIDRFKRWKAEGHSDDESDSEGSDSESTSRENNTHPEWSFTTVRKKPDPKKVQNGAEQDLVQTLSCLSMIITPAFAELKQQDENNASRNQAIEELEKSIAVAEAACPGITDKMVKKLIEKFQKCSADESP

Q: With `CCCCc1c(-c2ccc(OC)cc2)[nH]c2nccnc12` as the molecule, how does the residual activity (PASK (human)) read?
A: 97.6%

Q: And the residual activity (DAPK1 (human))?
A: 90.6%

Q: What about the residual activity (RPS6KA1 KD1 KD2 (human)) of the same molecule?
A: 89.8%

Q: What about the residual activity (PRKACA (human)) of the same molecule?
A: 96.6%

Q: What about the residual activity (CAMK4 (human)) of the same molecule?
A: 97.6%

Q: And the residual activity (ABL2 (human))?
A: 70.5%

Q: And the residual activity (RIPK2 (human))?
A: 71%

Q: What about the residual activity (PLK1 (human)) of the same molecule?
A: 104%

Q: And the residual activity (MST4 (human))?
A: 75.8%

Q: And the residual activity (LYN (human))?
A: 108% and 85.5%

Q: What about the residual activity [1] of the same molecule?
A: 97.7%

Q: What about the residual activity (INSRR (human)) of the same molecule?
A: 83.2%

Q: And the residual activity (BMX (human))?
A: 82.2%

Q: And the residual activity (NEK11 (human))?
A: 93.6%

Q: And the residual activity (SRMS (human))?
A: 96.7%

Q: And the residual activity (FRK (human))?
A: 86.5%

Q: What about the residual activity (CAMK2B (human)) of the same molecule?
A: 97.6%

Q: What about the residual activity (PRKCA (human)) of the same molecule?
A: 92.7%

Q: And the residual activity (FGFR2 (human))?
A: 89.5%

Q: And the residual activity (SRPK2 (human))?
A: 105%

Q: And the residual activity (YES1 (human))?
A: 45.7%

Q: What about the residual activity (PRKCB2 (human)) of the same molecule?
A: 106%

Q: And the residual activity (EPHB3 (human))?
A: 99.8%

Q: And the residual activity (PRKD2 (human))?
A: 101%

Q: What about the residual activity (PRKG1 (human)) of the same molecule?
A: 102% and 92.7%

Q: And the residual activity (PAK1 (human))?
A: 83.7%

Q: And the residual activity (SGK3 (human))?
A: 98.6%

Q: And the residual activity (CSF1R (human))?
A: 37.7%

Q: What about the residual activity (AURKC (human)) of the same molecule?
A: 55.8%

Q: And the residual activity (CDK9 CCNT1 (human))?
A: 55.2%

Q: What about the residual activity (EPHA7 (human)) of the same molecule?
A: 98%

Q: And the residual activity (MAP4K2 (human))?
A: 65.1%

Q: What about the residual activity (NTRK2 (human)) of the same molecule?
A: 73.4%

Q: And the residual activity (PBK (human))?
A: 80.6%

Q: And the residual activity (DDR2 (human))?
A: 94.3%

Q: And the residual activity (PHKG2 (human))?
A: 106%

Q: What about the residual activity (CDK2 CCNA2 (human)) of the same molecule?
A: 36.3%

Q: And the residual activity (MKNK2 (human))?
A: 99.3%

Q: What about the residual activity (CSNK2A2 (human)) of the same molecule?
A: 94.1%

Q: And the residual activity (MATK (human))?
A: 101%

Q: What about the residual activity (HIPK2 (human)) of the same molecule?
A: 109%

Q: And the residual activity (ITK (human))?
A: 99.4%

Q: `Cc1cncc2cccc(S(=O)(=O)N3CCCN(C(=O)CN)C[C@H]3C)c12` was tested. Which residual activity (PASK (human)) did it give?
A: 105%

Q: What about the residual activity (DAPK1 (human)) of the same molecule?
A: 97.9%

Q: What about the residual activity (RPS6KA1 KD1 KD2 (human)) of the same molecule?
A: 90.4%

Q: And the residual activity (PRKACA (human))?
A: 99.5%

Q: And the residual activity (CAMK4 (human))?
A: 90.6%

Q: And the residual activity (ABL2 (human))?
A: 98.9%

Q: What about the residual activity (RIPK2 (human)) of the same molecule?
A: 94.4%

Q: What about the residual activity (PLK1 (human)) of the same molecule?
A: 101%

Q: And the residual activity (MST4 (human))?
A: 107%

Q: What about the residual activity (LYN (human)) of the same molecule?
A: 101%

Q: What about the residual activity [1] of the same molecule?
A: 90.5%

Q: And the residual activity (INSRR (human))?
A: 103%

Q: And the residual activity (BMX (human))?
A: 94%

Q: What about the residual activity (NEK11 (human)) of the same molecule?
A: 84.2%

Q: And the residual activity (SRMS (human))?
A: 106%

Q: What about the residual activity (FRK (human)) of the same molecule?
A: 114%

Q: What about the residual activity (CAMK2B (human)) of the same molecule?
A: 92.4%

Q: What about the residual activity (PRKCA (human)) of the same molecule?
A: 109%

Q: And the residual activity (FGFR2 (human))?
A: 98.4%

Q: What about the residual activity (SRPK2 (human)) of the same molecule?
A: 97.1%

Q: And the residual activity (YES1 (human))?
A: 92%

Q: What about the residual activity (PRKCB2 (human)) of the same molecule?
A: 91.3%

Q: And the residual activity (EPHB3 (human))?
A: 99.6%

Q: And the residual activity (PRKD2 (human))?
A: 96%

Q: And the residual activity (PRKG1 (human))?
A: 78.7% and 85%

Q: And the residual activity (PAK1 (human))?
A: 98.1%

Q: What about the residual activity (SGK3 (human)) of the same molecule?
A: 96%

Q: And the residual activity (CSF1R (human))?
A: 95.6%

Q: And the residual activity (AURKC (human))?
A: 71.9%

Q: And the residual activity (CDK9 CCNT1 (human))?
A: 86.7%

Q: And the residual activity (EPHA7 (human))?
A: 90.7%

Q: And the residual activity (MAP4K2 (human))?
A: 106%

Q: What about the residual activity (NTRK2 (human)) of the same molecule?
A: 102%

Q: And the residual activity (PBK (human))?
A: 98.6%

Q: What about the residual activity (DDR2 (human)) of the same molecule?
A: 103%

Q: What about the residual activity (PHKG2 (human)) of the same molecule?
A: 90.5%

Q: And the residual activity (CDK2 CCNA2 (human))?
A: 98.4%

Q: And the residual activity (MKNK2 (human))?
A: 83.8%

Q: And the residual activity (CSNK2A2 (human))?
A: 99.3%

Q: And the residual activity (MATK (human))?
A: 94.4%

Q: And the residual activity (HIPK2 (human))?
A: 90.2%

Q: What about the residual activity (ITK (human)) of the same molecule?
A: 97.2%

Q: How did the residual activity (PASK (human)) turn out when `N#C/C(=C\c1ccc(O)c(O)c1)C(=O)NCc1ccccc1` was run?
A: 95.1%

Q: What about the residual activity (DAPK1 (human)) of the same molecule?
A: 99.7%

Q: What about the residual activity (RPS6KA1 KD1 KD2 (human)) of the same molecule?
A: 102%

Q: What about the residual activity (PRKACA (human)) of the same molecule?
A: 104%

Q: What about the residual activity (CAMK4 (human)) of the same molecule?
A: 97%

Q: What about the residual activity (ABL2 (human)) of the same molecule?
A: 93.4%

Q: What about the residual activity (RIPK2 (human)) of the same molecule?
A: 101%

Q: And the residual activity (PLK1 (human))?
A: 97.3%

Q: What about the residual activity (MST4 (human)) of the same molecule?
A: 103%

Q: What about the residual activity (LYN (human)) of the same molecule?
A: 105% and 99.8%

Q: What about the residual activity [1] of the same molecule?
A: 77.8%

Q: And the residual activity (INSRR (human))?
A: 96.3%

Q: And the residual activity (BMX (human))?
A: 88.8%

Q: And the residual activity (NEK11 (human))?
A: 95.4%

Q: And the residual activity (SRMS (human))?
A: 104%

Q: And the residual activity (FRK (human))?
A: 97.4%

Q: And the residual activity (CAMK2B (human))?
A: 102%

Q: What about the residual activity (PRKCA (human)) of the same molecule?
A: 99.1%

Q: And the residual activity (FGFR2 (human))?
A: 98.1%

Q: What about the residual activity (SRPK2 (human)) of the same molecule?
A: 96.6%

Q: What about the residual activity (YES1 (human)) of the same molecule?
A: 103%

Q: What about the residual activity (PRKCB2 (human)) of the same molecule?
A: 99.8%

Q: And the residual activity (EPHB3 (human))?
A: 101%

Q: And the residual activity (PRKD2 (human))?
A: 101%

Q: And the residual activity (PRKG1 (human))?
A: 89.2% and 92.6%

Q: What about the residual activity (PAK1 (human)) of the same molecule?
A: 97.7%

Q: And the residual activity (SGK3 (human))?
A: 102%

Q: What about the residual activity (CSF1R (human)) of the same molecule?
A: 100%

Q: And the residual activity (AURKC (human))?
A: 95.5%

Q: And the residual activity (CDK9 CCNT1 (human))?
A: 74.9%

Q: And the residual activity (EPHA7 (human))?
A: 89.7%

Q: And the residual activity (MAP4K2 (human))?
A: 103%

Q: And the residual activity (NTRK2 (human))?
A: 94.5%

Q: What about the residual activity (PBK (human)) of the same molecule?
A: 84.2%

Q: What about the residual activity (DDR2 (human)) of the same molecule?
A: 97.2%

Q: And the residual activity (PHKG2 (human))?
A: 96%

Q: What about the residual activity (CDK2 CCNA2 (human)) of the same molecule?
A: 99.2%

Q: And the residual activity (MKNK2 (human))?
A: 87.9%

Q: And the residual activity (CSNK2A2 (human))?
A: 81.9%

Q: And the residual activity (MATK (human))?
A: 86.3%

Q: What about the residual activity (HIPK2 (human)) of the same molecule?
A: 101%

Q: And the residual activity (ITK (human))?
A: 98.8%
